Results from US7560473B2 (Institute of Pharmacology and Toxicology Academy of …, priority 2001, dated 2009).

How the values were obtained:
[1] = tested on: rats anesthetized with pentobarbital sodium; assay: Antagonism of glibenclamide on the cardiovascular effects in anesthetized rats; format: in vivo, Wistar rats; conditions: for +dp/dtmax / DBP / HR / LVSP / MBP / SB / Vpm / −dp/dtmax: iv mg/kg: pinacidil 1.0, nifedipine 1.0, compound 1 0.5, means ± SE; for antagonism of the cardiovascular effects by glibenclamide (in words): glibenclamide 20 mg/kg iv pretreatment
Method: The methods of biological activity experiment 1 were as follows: Male Wistar rats, weighing 280±30 g were purchased from the experimental animal center of Academy of Military Medical Sciences. Rats were anesthetized with pentobarbital sodium (45 mg/kg) by peritoneal injection. A PE50 polyethylene catheter was inserted into the left ventricle through right carotid artery for cardiac function measurement with a pressure energe exchanger, wherein the signal is put into a SMUP-PC biosignal processing system. Cardiac functional parameters such as HR, LVSP, +dp/dtmax, −dp/dtmax and Vpm were recorded. Another two PE50 polyethylene catheters were inserted into the right femoral artery and vein respectively for blood pressure measurement wherein the artery cathether was linked to a four-channel physiology recorder (RM-6000) through a MPU-0.5A Type pressure energe exchanger, which recorded SBP, DBP and MBP, while the vein catheter was used for compound administration. The methods were described by Liu Wei et al: Liu Wei, Wang Hai, Xiao Wen-Bin.
The methods of Biological activity experiment 3 were the same as those described in the biological activity experiment 1.

[2] = molecular target: T1, ATP-sensitive potassium channels in vascular smooth muscles (Rattus norvegicus, UniProt Q63563); assay: Association and dissociation kinetics of [^3H]glibenclamide binding in aortic rings; design: species or system Wistar rat; conditions: drug M: compound 1 10^−4, pinacidil 10^−4, ATP 10^−2, ADP 10^−3, UDP 5 × 10^−3, Ade 10^−3; for Dissociation kinetics k2 of [^3H]glibenclamide binding / Association kinetics k1 of [^3H]glibenclamide binding / Association kinetics kobs of [^3H]glibenclamide binding / Association kinetics kA of [^3H]glibenclamide binding: 25° C.; for Dissociation kinetics k2 of [^3H]glibenclamide binding: control 0.72 ± 0.11; for Dissociation kinetics Kd of [^3H]glibenclamide binding in presence of the drug: Kd of the radioligand, not of the drug, control 0.55 ± 0.14; for Association kinetics k1 of [^3H]glibenclamide binding / Association kinetics kobs of [^3H]glibenclamide binding / Association kinetics kA of [^3H]glibenclamide binding: [^3H]-glibenclamide 3 nM; for Association kinetics k1 of [^3H]glibenclamide binding: control 1.31 ± 0.14; for Association kinetics kobs of [^3H]glibenclamide binding: control 4.65 ± 0.37, means ± SD, n = 4~10; for Association kinetics kA of [^3H]glibenclamide binding: control 181.90 ± 46.90
T1 construct: The aorta was cut into about 3-5 mm arterial rings and the vascular endothelium was scraped off; from tissue; host or cells: endothelium-removed aortic rings of male Wistar rats
From the text: Biological activity experiment 4. Allosteric regulation of novel compounds on ATP-sensitive potassium channels in vascular smooth muscles.
To study the allosteric regulation of compound 1 on ATP-sensitive potassium channels in vascular smooth muscles, the radio-labled-ligand was used in the biological activity experiment 4.
1. The allosteric regulation of compound 1 on the binding sites for the selective KATP blocker glibenclamide in vascular smooth muscles was studied as follows: After decapitated, the male Wistar rat (340±20 g) was immediately incised open the thoracic cavity. The aorta was dissected and immersed in the 4° C. buffer containing 10 mM HEPES to wash off the blood, then carefully extirpated the fat, peripheral connective tissues and thrombus. The aorta was cut into about 3-5 mm arterial rings and the vascular endothelium was scraped off with wet tampon. The arterial rings were blotted, weighted and transferred into the tubes containing proper amount of ice colded physiological saline buffer. […] At 5,10,15,20,30,60,90 and 120 min after incubation, 9 mL ice colded Tris buffer (50 mM) was added to terminate the reaction. After washing off the free and bound [^3H]-glibenclamide, the aorta was blotted, transferred to a scintillator, added 50 uL 30% H2O2 and reacted for 2 h at 80° C. After cooling, 2.5 mL ethyl glycol and 5 mL 1% B-BPD xylene were added in sequence, kept stationary for 8 h and measured under a scintillometer for cpm value. The resulting data were fit into a regression line with In[BEQ/(BEQ-Bt)]vs.t and the parameters for association kinetics were obtained. In the disassociation kinetics experiments, the aorta treated as described above and [^3H]-glibenclamide were incubated for 60 min at 25° C., and then 30 uM glibenclamide was added. 0,5,15,30,60,90 and 120 min later, the cpm values for the complex of [^3H]-glibenclamide and KATP were measured. The resulting data were fit into a regression line with In(B/BEQ)]vs.t and the parameters for disassociation kinetics were obtained. 2. The allosteric regulation of compound 1 on the binding sites for the selective KATP activator P1075 in vascular smooth muscles was studied with the method as described above, but some conditions should be changed as follows: the incubation temperature was 37° C. instead of 25° C.;P1075 was used instead of glibenclamide; In the association kinetics experiments, the time points for sampling were 5,10,15,20,30,45,60 and 90 min, while in the disassociation kinetics experiments, that were 1,3,5,10,20,30,45 and 60 min. Biological activity experiment 5. The effects of compound 1 on the specific binding of high selective activator [^3H]P1075 with ATP-sensitive potassium channels in vascular smooth muscles.

[3] = tested on: spontaneously hypertensive rats; assay: Acute antihypertensive effects in conscious spontaneously hypertensive rats; format: in vivo; conditions: for SBP at 1 h after administration / heart rates at 1 h / SBP at 3 h after administration / heart rates at 3 h / SBP at 5 h after administration / heart rates at 5 h / SBP at 9 h after administration / heart rates at 9 h / SBP at 12 h after administration / heart rates at 12 h / SBP at 24 h after administration / heart rates at 24 h / SBP base value / heart rates base value: po mg/kg: compound 1 3, pinacidil 3, nifedipine 10, bisoprolol 60, captopril 40, means ± SD, 9-13 rats; for heart rates at 1 h / heart rates at 3 h / heart rates at 5 h / heart rates at 9 h / heart rates at 12 h / heart rates at 24 h / heart rates base value: in bpm (unit assumed); for SBP base value / heart rates base value: base value before administration
From the text: Biological activity experiment 2. The acute antihypertensive effects of compound 1 in conscious spontaneously hypertensive rats.
The methods of biological activity experiment 2 were described by Long Chao-Liang et al: Long Chao-Liang, Wang Hai, Xiao Wen-Bin. Effects of pinacidil on, hypertensive vascular remodeling. Chin J Pharmacol Toxicol 1997; 11(1):42-46.

[4] = molecular target: T1, ATP-sensitive potassium channels in vascular smooth muscles; assay: Inhibition of specific binding of [^3H]P1075 in endothelium-removed rat aorta; design: species or system Wistar rat; conditions: for IC50 / Ki: [^3H] P1075 5 nmol L^−1, 90 minutes at 37° C., endothelium-removed rat aorta; for Ki: read-out: pKi for inhibition of specific binding of [^3H]P1075 (converted)
[5] = A: after administration (30 min after pinacidil, 10 min nifedipine, 15 min compound 1), glibenclamide 20 iv pretreatment
[6] = B: before administration, glibenclamide 20 iv pretreatment ten minutes

T1 sequence (Q63563 1-1545 isoform Q63563-2): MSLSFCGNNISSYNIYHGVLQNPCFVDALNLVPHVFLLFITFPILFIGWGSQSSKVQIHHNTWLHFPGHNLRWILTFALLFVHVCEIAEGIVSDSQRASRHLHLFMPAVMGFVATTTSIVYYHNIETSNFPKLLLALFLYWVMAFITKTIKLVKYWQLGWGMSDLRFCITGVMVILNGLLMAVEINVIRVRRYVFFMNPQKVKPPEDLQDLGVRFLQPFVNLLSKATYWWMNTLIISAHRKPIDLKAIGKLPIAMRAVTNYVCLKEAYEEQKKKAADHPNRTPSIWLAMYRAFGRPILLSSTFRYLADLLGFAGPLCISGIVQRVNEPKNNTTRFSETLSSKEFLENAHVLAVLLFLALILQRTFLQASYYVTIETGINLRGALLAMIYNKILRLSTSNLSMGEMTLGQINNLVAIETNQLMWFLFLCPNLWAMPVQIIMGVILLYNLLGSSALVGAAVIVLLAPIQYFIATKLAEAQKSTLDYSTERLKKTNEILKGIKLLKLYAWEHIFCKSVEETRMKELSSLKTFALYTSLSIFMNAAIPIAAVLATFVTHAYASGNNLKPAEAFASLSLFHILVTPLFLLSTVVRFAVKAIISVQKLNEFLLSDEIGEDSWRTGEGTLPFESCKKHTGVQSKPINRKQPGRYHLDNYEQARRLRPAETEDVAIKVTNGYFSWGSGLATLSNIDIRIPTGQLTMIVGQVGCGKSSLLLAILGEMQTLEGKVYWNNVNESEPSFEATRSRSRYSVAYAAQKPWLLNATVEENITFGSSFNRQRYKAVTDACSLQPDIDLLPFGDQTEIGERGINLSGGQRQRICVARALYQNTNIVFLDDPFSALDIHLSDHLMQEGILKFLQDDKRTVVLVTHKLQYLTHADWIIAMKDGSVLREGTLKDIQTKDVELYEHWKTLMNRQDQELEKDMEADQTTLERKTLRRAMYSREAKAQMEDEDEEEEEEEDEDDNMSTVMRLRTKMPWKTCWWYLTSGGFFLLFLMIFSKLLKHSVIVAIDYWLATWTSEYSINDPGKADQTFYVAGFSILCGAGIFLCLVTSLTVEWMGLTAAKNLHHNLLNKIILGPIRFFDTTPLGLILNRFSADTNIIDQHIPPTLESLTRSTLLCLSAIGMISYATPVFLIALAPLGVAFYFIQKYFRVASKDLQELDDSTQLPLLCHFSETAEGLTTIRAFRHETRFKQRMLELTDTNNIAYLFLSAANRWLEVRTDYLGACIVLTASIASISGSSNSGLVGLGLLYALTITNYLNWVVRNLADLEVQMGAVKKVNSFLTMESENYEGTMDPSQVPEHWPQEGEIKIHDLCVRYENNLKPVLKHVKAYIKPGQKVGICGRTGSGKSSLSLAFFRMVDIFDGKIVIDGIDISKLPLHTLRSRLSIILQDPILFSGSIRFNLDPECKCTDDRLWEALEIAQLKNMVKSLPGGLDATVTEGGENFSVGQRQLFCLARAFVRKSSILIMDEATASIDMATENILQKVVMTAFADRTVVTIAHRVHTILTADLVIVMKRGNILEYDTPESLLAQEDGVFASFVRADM
T1 sequence (Q63664 whole entry partner): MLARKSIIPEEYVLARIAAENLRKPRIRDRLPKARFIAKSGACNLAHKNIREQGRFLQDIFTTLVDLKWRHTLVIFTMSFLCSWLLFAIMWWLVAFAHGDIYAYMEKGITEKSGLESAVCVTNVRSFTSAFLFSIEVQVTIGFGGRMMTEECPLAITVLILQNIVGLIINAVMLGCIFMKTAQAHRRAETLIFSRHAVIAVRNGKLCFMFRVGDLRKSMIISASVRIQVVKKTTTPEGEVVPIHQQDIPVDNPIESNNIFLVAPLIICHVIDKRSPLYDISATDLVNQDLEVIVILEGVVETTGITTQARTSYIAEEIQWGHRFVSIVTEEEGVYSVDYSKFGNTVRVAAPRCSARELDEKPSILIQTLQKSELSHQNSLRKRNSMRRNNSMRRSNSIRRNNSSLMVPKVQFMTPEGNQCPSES

SMILES: CC(C)NC(C)(C)C(C)C [compound 1, N-(1-methylethyl)-2,3-dimethyl-2-butylamine]
- +dp/dtmax [1, 5]: 672 ± 36 kPa/a
- DBP [1, 5]: 77 ± 9 mmHg
- HR [1, 5]: 357 ± 18 bpm
- LVSP [1, 5]: 133 ± 6 mmHg
- MBP [1, 5]: 86 ± 9 mmHg
- SB [1, 5]: 105 ± 10 mmHg
- Vpm [1, 5]: 2.7 ± 03 /a
- −dp/dtmax [1, 5]: 507 ± 39 kPa/a
- +dp/dtmax [1, 6]: 978 ± 54 kPa/a
- DBP [1, 6]: 98 ± 7 mmHg
- HR [1, 6]: 394 ± 13 bpm
- LVSP [1, 6]: 180 ± 10 mmHg
- MBP [1, 6]: 110 ± 7 mmHg
- SB [1, 6]: 134 ± 8 mmHg
- Vpm [1, 6]: 3.3 ± 0.2 /a
- −dp/dtmax [1, 6]: 819 ± 56 kPa/a
- antagonism of the cardiovascular effects by glibenclamide (in words) [1]: could be antagnized by glibenclamide
- Dissociation kinetics k2 of [^3H]glibenclamide binding [2]: 1.02 ± 0.14 ×10^2 nM^−1 · min^−1
- Dissociation kinetics Kd of [^3H]glibenclamide binding in presence of the drug [2]: 1.64 ± 0.69 nM
- Association kinetics k1 of [^3H]glibenclamide binding [2]: 0.62 ± 0.25 ×10^−2nM^−1 · min^−1
- Association kinetics kobs of [^3H]glibenclamide binding [2]: 2.90 ± 0.74 ×10^−2nM^−1 · min^−1
- Association kinetics kA of [^3H]glibenclamide binding [2]: 61.04 ± 25.89 ×10^−2nM^−1 · min^−1
- SBP at 1 h after administration [3]: 227 ± 12 mmHg
- heart rates at 1 h [3]: 414 ± 27
- SBP at 3 h after administration [3]: 218 ± 7 mmHg
- heart rates at 3 h [3]: 412 ± 27
- SBP at 5 h after administration [3]: 215 ± 15 mmHg
- heart rates at 5 h [3]: 408 ± 25
- SBP at 9 h after administration [3]: 229 ± 8 mmHg
- heart rates at 9 h [3]: 407 ± 21
- SBP at 12 h after administration [3]: 243 ± 7 mmHg
- heart rates at 12 h [3]: 413 ± 15
- SBP at 24 h after administration [3]: 244 ± 9 mmHg
- heart rates at 24 h [3]: 417 ± 12
- SBP base value [3]: 246 ± 11 mmHg
- heart rates base value [3]: 419 ± 20
- duration of antihypertensive action ([3]; oral administration, spontaneously hypertensive rats): 9 h
- IC50 [4]: 355 ± 53.7 nM
- Ki [4]: 355 nM
- competitive inhibition of [^3H] P1075 binding, times weaker than that of P1075 ([4]; relative to P1075): 39 times
- competitive inhibition of [^3H] P1075 binding, times stronger than that of glibenclamide ([4]; relative to glibenclamide): 166 times
- competitive inhibition of [^3H] P1075 binding, times weaker than that of pinacidil ([4]; relative to pinacidil): 1.8 times

SMILES: CC(N/C(=N\C#N)Nc1ccncc1)C(C)(C)C (centres unmarked) [pinacidil]
- +dp/dtmax [1, 5]: 571 ± 33 kPa/a
- DBP [1, 5]: 67 ± 6 mmHg
- HR [1, 5]: 317 ± 25 bpm
- LVSP [1, 5]: 111 ± 9 mmHg
- MBP [1, 5]: 76 ± 7 mmHg
- SB [1, 5]: 91 ± 8 mmHg
- Vpm [1, 5]: 4.1 ± 0.5 /a
- −dp/dtmax [1, 5]: 447 ± 73 kPa/a
- +dp/dtmax [1, 6]: 673 ± 28 kPa/a
- DBP [1, 6]: 92 ± 5 mmHg
- HR [1, 6]: 353 ± 17 bpm
- LVSP [1, 6]: 124 ± 6 mmHg
- MBP [1, 6]: 104 ± 5 mmHg
- SB [1, 6]: 128 ± 5 mmHg
- Vpm [1, 6]: 4.3 ± 0.5 /a
- −dp/dtmax [1, 6]: 536 ± 42 kPa/a
- antagonism of the cardiovascular effects by glibenclamide (in words) [1]: could aslo block
- Dissociation kinetics k2 of [^3H]glibenclamide binding [2]: 1.15 ± 0.27 ×10^2 nM^−1 · min^−1
- Dissociation kinetics Kd of [^3H]glibenclamide binding in presence of the drug [2]: 2.95 ± 0.95 nM
- Association kinetics k1 of [^3H]glibenclamide binding [2]: 0.39 ± 0.24 ×10^−2nM^−1 · min^−1
- Association kinetics kobs of [^3H]glibenclamide binding [2]: 2.32 ± 0.67 ×10^−2nM^−1 · min^−1
- Association kinetics kA of [^3H]glibenclamide binding [2]: 33.91 ± 22.43 ×10^−2nM^−1 · min^−1
- SBP at 1 h after administration [3]: 208 ± 5 mmHg
- heart rates at 1 h [3]: 421 ± 17
- SBP at 3 h after administration [3]: 236 ± 5 mmHg
- heart rates at 3 h [3]: 400 ± 15
- SBP at 5 h after administration [3]: 241 ± 4 mmHg
- heart rates at 5 h [3]: 354 ± 14
- SBP at 9 h after administration [3]: 242 ± 5 mmHg
- heart rates at 9 h [3]: 365 ± 16
- SBP at 12 h after administration [3]: 244 ± 5 mmHg
- heart rates at 12 h [3]: 352 ± 20
- SBP at 24 h after administration [3]: 244 ± 5 mmHg
- heart rates at 24 h [3]: 365 ± 15
- SBP base value [3]: 242 ± 5 mmHg
- heart rates base value [3]: 351 ± 19
- IC50 [4]: 200 ± 43.6 nM
- Ki [4]: 200 nM
